Laboratory results as given in patent US20220153746A1, “NITROGEN OXIDE-DONATING PDE-5 AND/OR PDE-6 INHIBITOR COMPOUNDS, AND USES THEREOF” (ILDONG PHARMACEUTICAL CO., LTD., priority 2020, published 2022).
Several values for one entry are separate records, joined by “and”; a condition that tells them apart may be missing. Equal values may be shown once. Read-outs that look alike come from different tables or passages of the source.

Assay: TD Phase (Groups 1 and 3): plasma and ocular tissue concentrations and pharmacokinetics of Compound 18 and its metabolite Compound 4 after once daily ocular instillation of Compound 18 nanosuspension for 7 days
Assay type: in vivo, New Zealand white rabbits
Conditions: for Compound 18 Lens Homogenate Conc.: homogenate dilution factor 5; for Cornea homogenate concentration: homogenate dilution factor 15; for concentration at 1 h: Group 1, 1 h
Source text: This example illustrates the procedures and results for the levels of Compound 18 and its metabolite Compound 4 in plasma and ocular tissues of normotensive rabbits following ocular instillation of Compound 18 once daily for 7 consecutive days.
Twenty five (25) male New Zealand white rabbits were divided into 5 groups of varying amounts of animals per group.
The Test article, Compound 18 was formulated as a 2% nanosuspension in DI water containing 0.2% PS80 (polyoxyethylenesorbitan, monooleate (Tween 80)) and 0.4% HPMC (hydroxypropylmethylcellulose) at pH 6.77. Referred to herein as “Compound 18 nanosuspension.”
The study consisted of three groups (Groups 1-3) of 19 male rabbits (NZW) that underwent once daily morning ocular installation (1 eyedrop) for 7 consecutive days (Day 0-6). Groups 4-5 each consisted of 3 male rabbits (NZW) that were not dosed.
Blood samples (1 mL) were collected from the jugular vein at the intervals set out below for each group. The samples were then inverted several times following collection and held on wet ice until centrifuged. Samples were centrifuged within 60 minutes of collection under refrigeration (set at 5° C. for 10 minutes at 2000 g.
Group 1 (Pilot Study, terminal blood collection): blood was collected from 3 animals at 1 hour post day 7 dose of Compound 18 nanosuspension.
Group 3 (TD Phase, terminal blood collection): blood was collected from 3 animals at 0.5 hour, 3 animals at 2 hours, 3 animals at 4 hours, and 3 animals at 8 hours post day 7 dose of Compound 18 nanosuspension.
Group 1 (Pilot Study): 3 animals were terminated at 1 hour post Day 7 dose of Compound 18 nanosuspension. Following blood collection and termination, ocular tissues (aqueous humor, vitreous humor, cornea, iris/ciliary body, lens, optic nerve, retina, sclera/choroid, and trabecular meshwork) were collected from each animal and the tissue weights were recorded. Note: sclera and choroid were collected together. Iris and ciliary body were collected together.
Group 3 (TD Phase): 3 animals were terminated at 0.5 hour, 3 animals at 2 hours, 3 animals at 4 hours, and 3 animals at 8 hours post Day 7 dose of Compound 18 nanosuspension. Following blood collection and termination, ocular tissues (aqueous humor, vitreous humor, cornea, iris/ciliary body, lens, optic nerve, retina, sclera/choroid, and trabecular meshwork) were collected from each animal and the tissue weights were recorded. Note: sclera and choroid were collected together. Iris and ciliary body were collected together.
Plasma and tissue samples from treated animals (Groups 1-3) were analyzed for Compound 18 and its metabolite Compound 4 concentrations by LC-MS/MS.
Pharmacokinetic analysis was conducted using WinNonlin Version 6.2.1 (Pharsight, Mountain View, Calif.), operating as a validated software system. Noncompartmental analysis was conducted using the extravascular administration model for ocular instillation dosing.
The peak plasma and ocular tissue concentration, time to achieve peak plasma and ocular tissue concentration, half-life, and area under the plasma and ocular tissue concentration-time curve (Cmax, Tmax, T1/2, and AUC) were calculated from the TD phase combined with the pilot study mean animal plasma and ocular tissue concentrations for each sampling time/dose group for Compound 18 and its metabolite Compound 4.
BA Assay: Quantitation Range 0.05 to 100 ng/mL for Compound 18, 0.15 to 100 ng/mL for Compound 4.
3. Pipet 50 μL of each type of pre-spiked ocular tissue samples (AH/VH) for QC samples, 50 μL of incurred aqueous humor, and vitreous humor sample (if applicable) into a 96 well plate.
Ocular Tissues Homogenate Preparation: Incurred rabbit ocular tissues were weighed in Genogrinder tubes (plastic tubes with small beads) at the time of removal from the animal and stored frozen (<−70° C.) until analysis. The rabbit incurred ocular tissues were thawed on wet ice. […]

[1] = TD Phase, Group 3, 4 h, Mean, BQL set to 0
[2] = TD Phase, Group 3, 4 h, individual animals
[3] = TD Phase, Group 3, 4 h, individual animals, BQL set to 0
[4] = TD Phase, Group 3, 4 h, individual animals, homogenate dilution factor 20
[5] = TD Phase, Group 3, 8 h, Mean, BQL set to 0
[6] = TD Phase, Group 3, 8 h, individual animals
[7] = TD Phase, Group 3, 8 h, individual animals, BQL set to 0
[8] = TD Phase, Group 3, 8 h, individual animals, homogenate dilution factor 20

CCCc1nn(C)c2c(=O)[nH]c(-c3cc(S(=O)(=O)N4CC(CCCO[N+](=O)[O-])C4)ccc3OCC)nc12 [Compound 18, 3-(1-((4-ethoxy-3-(1-methyl-7-oxo-3-propyl-6,7-dihydro-1H-pyrazolo[4,3-d]pyrimidin-5-yl)phenyl)sulfonyl)azetidin-3-yl)propyl nitrate]
Compound 18 Trahecular Meshwork Homogenate Conc. (TD Phase, Group 3, 2 h, individual animals, homogenate dilution factor 20): BQL (BQL = Below lower limit of quantitation (0.0500 ng/mL for Compound 18)
Compound 18 Retina Homogenate Conc. (TD Phase, Group 3, 2 h, individual animals, homogenate dilution factor 20 (164 for animal 207671)): 0.192 ng/mL and 3.47 ng/mL and 0.17 ng/mL
Compound 18 Aqueous Humor Conc. [1]: BQL (BQL = Below lower limit of quantitation (0.0500 ng/mL for Compound 18)
Compound 18 Plasma Conc. [1]: BQL (BQL = Below lower limit of quantitation (0.0500 ng/mL for Compound 18)
Compound 18 Vitreous Humor Conc. [1]: BQL (BQL = Below lower limit of quantitation (0.0500 ng/mL for Compound 18)
Compound 18 Aqueous Humor Conc. [2]: BQL (BQL = Below lower limit of quantitation (0.0500 ng/mL for Compound 18)
Compound 18 Plasma Conc. [2]: BQL (BQL = Below lower limit of quantitation (0.0500 ng/mL for Compound 18)
Compound 18 Vitreous Humor Conc. [2]: BQL (BQL = Below lower limit of quantitation (0.0500 ng/mL for Compound 18)
Final Compound 18 Optic Nerve Conc. [2]: 248 ng/g and 31.4 ng/g and 104 ng/g
Final Compound 18 Iris/Ciliary Body Conc. [3]: 5.78 ng/g and 0 ng/g and 8.84 ng/g
Final Compound 18 Lens Conc. [3]: 0 ng/g (2×) and 0.384 ng/g
Final Compound 18 Retina Conc. [3]: 39.6 ng/g and 6.02 ng/g and 36.2 ng/g
Compound 18 Lens Homogenate Conc. [2]: BQL (BQL = Below lower limit of quantitation (0.0500 ng/mL for Compound 18)
Cornea homogenate concentration [2]: BQL (BQL = Below lower limit of quantitation (0.0500 ng/mL for Compound 18)
Compound 18 Iris/Ciliary Body Homogenate Conc. [4]: BQL (BQL = Below lower limit of quantitation (0.0500 ng/mL for Compound 18) and 0.442 ng/mL
Compound 18 Optic Nerve Homogenate Conc. [4]: 12.4 ng/mL and 1.57 ng/mL and 5.20 ng/mL
Compound 18 Retina Homogenate Conc. [4]: 1.98 ng/mL and 0.301 ng/mL and 1.81 ng/mL
Compound 18 Aqueous Humor Conc. [5]: BQL (BQL = Below lower limit of quantitation (0.0500 ng/mL for Compound 18)
Compound 18 Vitreous Humor Conc. [5]: BQL (BQL = Below lower limit of quantitation (0.0500 ng/mL for Compound 18)
Compound 18 Aqueous Humor Conc. [6]: BQL (BQL = Below lower limit of quantitation (0.0500 ng/mL for Compound 18)
Compound 18 Plasma Conc. [6]: BQL (BQL = Below lower limit of quantitation (0.0500 ng/mL for Compound 18)
Compound 18 Vitreous Humor Conc. [6]: BQL (BQL = Below lower limit of quantitation (0.0500 ng/mL for Compound 18)
Final Compound 18 Optic Nerve Conc. [6]: 26.2 ng/g and 108 ng/g and 50.6 ng/g
Final Compound 18 Iris/Ciliary Body Conc. [7]: 2.90 ng/g and 0 ng/g (2×)
Final Compound 18 Lens Conc. [7]: 0 ng/g
Final Compound 18 Retina Conc. [7]: 8.70 ng/g and 3.64 ng/g and 9.16 ng/g
Compound 18 Lens Homogenate Conc. [6]: BQL (BQL = Below lower limit of quantitation (0.0500 ng/mL for Compound 18)
Cornea homogenate concentration [6]: BQL (BQL = Below lower limit of quantitation (0.0500 ng/mL for Compound 18)
Compound 18 Iris/Ciliary Body Homogenate Conc. [8]: BQL (BQL = Below lower limit of quantitation (0.0500 ng/mL for Compound 18)
Compound 18 Optic Nerve Homogenate Conc. [8]: 1.31 ng/mL and 5.41 ng/mL and 2.53 ng/mL
Compound 18 Retina Homogenate Conc. [8]: 0.435 ng/mL and 0.182 ng/mL and 0.458 ng/mL
Compound 18 Trahecular Meshwork Homogenate Conc. [8]: BQL (BQL = Below lower limit of quantitation (0.0500 ng/mL for Compound 18)
tissue of highest concentration (TD phase plasma and ocular tissues): highest in optic nerve and sclera/choroid
AUC0-8 (aqueous humor, vitreous humor, plasma, and lens (relatively low exposure)): 0.02-1.2 h*ng/mL or h*ng/g
AUC0-8 (cornea, Day 7, from mean concentrations): 209 ng·h/g
AUC0-8 (iris/ciliary body, Day 7, from mean concentrations): 150 ng·h/g
AUC0-8 (lens, Day 7, from mean concentrations): 1.19 ng·h/g
concentration at 1 h (male, New Zealand white, rabbit, aqueous humor, other: ocular instillation (eye drop), 0.8 mg/kg/day, TD Phase, Mean, BQL set to 0, read-out: Compound 18 Aqueous Humor Conc.): 0.063 ng/mL
concentration at 1 h (male, New Zealand white, rabbit, aqueous humor, other: ocular instillation (eye drop), 0.8 mg/kg/day, TD Phase, individual animals, read-out: Compound 18 Aqueous Humor Conc.): 0.189 ng/mL
concentration at 4 h (male, New Zealand white, rabbit, iris/ciliary body homogenate, topical, 2 mg/day, TD Phase, Group 3, 4 h, individual animals, homogenate dilution factor 20, read-out: Compound 18 Iris/Ciliary Body Homogenate Conc.): 0.289 ng/mL
concentration at 8 h (male, New Zealand white, rabbit, iris/ciliary body homogenate, topical, 2 mg/day, TD Phase, Group 3, 8 h, individual animals, homogenate dilution factor 20, read-out: Compound 18 Iris/Ciliary Body Homogenate Conc.): 0.145 ng/mL
concentration at 1 h (male, New Zealand white, rabbit, iris/ciliary body, topical, 0.798 mg/kg/day, TD Phase, Mean, read-out: Final Compound 18 Iris/Ciliary Body Conc.): 107 ng/g
concentration at 0.5 h (male, New Zealand white, rabbit, iris/ciliary body, topical, 0.798 mg/kg/day, TD Phase, Group 3, 0.5 h, Mean, read-out: Final Compound 18 Iris/Ciliary Body Conc.): 90.1 ng/g
